Measurements from patent publication US12173135B2, “Plasticizer and plastic product” (LARGAN MEDICAL CO., LTD., priority 2019, dated 2024).
Blank lines part the entries; values can stand above or below the compound they belong to.

Experiment: biodegradation tests (ASTM 5338) of the plasticizers
Description: The biodegradation tests (ASTM 5338) of the plasticizers with different molecular structures are performed below. The comparison, the 29th Example and the 30th Example are tested, and the degrees of degradation under different days are listed in the following table.

Degree of Degradation (%) (day 0): 0%
Degree of Degradation (%) (day 3): 6.70%
Degree of Degradation (%) (day 7): 8.53%
Degree of Degradation (%) (day 12): 20.53%
Degree of Degradation (%) (day 15): 26.53%
Degree of Degradation (%) (day 19): 35.22%
Degree of Degradation (%) (day 24): 44.08%
Degree of Degradation (%) (day 28): 48.75%
Degree of Degradation (%) (day 33): 51.62%
Degree of Degradation (%) (day 36): 53.72%
Degree of Degradation (%) (day 40): 55.78%
Degree of Degradation (%) (day 45): 57.19%
Degree of Degradation (%) (day 49): 58.41%
Degree of Degradation (%) (day 54): 59.35%
Degree of Degradation (%) (day 58): 59.61%
Degree of Degradation (%) (day 63): 59.85%
Degree of Degradation (%) (day 67): 60.34%
Degree of Degradation (%) (day 71): 62.58%
Degree of Degradation (%) (day 75): 63.96%
Degree of Degradation (%) (day 81): 63.75%
Degree of Degradation (%) (day 85): 62.72%
Degree of Degradation (%) (day 89): 64.14%
Degree of Degradation (%) (day 93): 65.04%
Degree of Degradation (%) (day 98): 65.04%
Degree of Degradation (%) (day 102): 66.44%
Degree of Degradation (%) (day 105): 66.44%
Degree of Degradation (%) (day 109): 66.25%
Degree of Degradation (%) (day 114): 66.04%
Degree of Degradation (%) (day 118): 66.80%
Degree of Degradation (%) (day 124): 66.80%
Degree of Degradation (%) (day 128): 67.01%
Degree of Degradation (%) (day 132): 66.81%
Degree of Degradation (%) (day 137): 66.81%
Degree of Degradation (%) (day 140): 66.81%
Degree of Degradation (%) (day 144): 66.01%
Degree of Degradation (%) (day 147): 64.81%
Degree of Degradation (%) (day 151): 64.62%
Degree of Degradation (%) (day 155): 64.23%
Degree of Degradation (%) (day 158): 65.50%
Degree of Degradation (%) (day 161): 66.30%
Degree of Degradation (%) (day 165): 66.92%
Degree of Degradation (%) (day 168): 65.84%
Degree of Degradation (%) (day 172): 67.51%
Degree of Degradation (%) (day 175): 69.97%
Degree of Degradation (%) (day 179): 71.93%
SMILES: CCCCCCCCOC(=O)CC(N)C(=O)OCCCCCCCC (racemic) [29th Example]

Degree of Degradation (%) (day 0): 0%
Degree of Degradation (%) (day 3): 3.21%
Degree of Degradation (%) (day 7): 1.97%
Degree of Degradation (%) (day 12): 1.09%
Degree of Degradation (%) (day 15): 1.87%
Degree of Degradation (%) (day 19): 4.13%
Degree of Degradation (%) (day 24): 6.63%
Degree of Degradation (%) (day 28): 13.13%
Degree of Degradation (%) (day 33): 17.63%
Degree of Degradation (%) (day 36): 26.70%
Degree of Degradation (%) (day 40): 33.47%
Degree of Degradation (%) (day 45): 38.10%
Degree of Degradation (%) (day 49): 43.93%
Degree of Degradation (%) (day 54): 47.28%
Degree of Degradation (%) (day 58): 60.14%
Degree of Degradation (%) (day 63): 67.90%
Degree of Degradation (%) (day 67): 69.50%
Degree of Degradation (%) (day 71): 71.37%
Degree of Degradation (%) (day 75): 72.99%
Degree of Degradation (%) (day 81): 73.19%
Degree of Degradation (%) (day 85): 73.19%
Degree of Degradation (%) (day 89): 73.53%
Degree of Degradation (%) (day 93): 78.89%
Degree of Degradation (%) (day 98): 78.51%
Degree of Degradation (%) (day 102): 78.14%
Degree of Degradation (%) (day 105): 78.50%
Degree of Degradation (%) (day 109): 81.63%
Degree of Degradation (%) (day 114): 81.09%
Degree of Degradation (%) (day 118): 84.55%
Degree of Degradation (%) (day 124): 84.55%
Degree of Degradation (%) (day 128): 86.04%
Degree of Degradation (%) (day 132): 86.55%
Degree of Degradation (%) (day 137): 86.81%
Degree of Degradation (%) (day 140): 86.58%
Degree of Degradation (%) (day 144): 86.58%
Degree of Degradation (%) (day 147): 87.69%
Degree of Degradation (%) (day 151): 88.54%
Degree of Degradation (%) (day 155): 88.54%
Degree of Degradation (%) (day 158): 87.80%
Degree of Degradation (%) (day 161): 87.80%
Degree of Degradation (%) (day 165): 87.80%
Degree of Degradation (%) (day 168): 88.40%
Degree of Degradation (%) (day 172): 89.55%
Degree of Degradation (%) (day 175): 89.91%
Degree of Degradation (%) (day 179): 91.46%
SMILES: O=C(OCCOC(=O)c1ccccc1O)c1ccccc1O [30th Example]
